From article PMC9490176 (Frontiers in Pharmacology, 2022)
Like-named read-outs stand apart in the source and are kept apart here.

Key:
[1] = In vivo pharmacokinetics of pyrotinib in rats with or without azole pretreatment; set-up: species or system Sprague-Dawley rats; settings: rat; for AUC(0-inf) / AUC(0-t) / CL/F / Cmax / Vd/F: male, Sprague-Dawley, plasma, po, 8 mg/kg; for AUC(0-inf) / AUC(0-t) / CL/F / Cmax / Vd/F / MRT(0-t) / MRT(0-∞) / Tmax / t1/2: 8 mg/kg pyrotinib oral; for AUC(0-inf) / AUC(0-t) / CL/F / Cmax / MRT(0-t) / MRT(0-∞) / Tmax / t1/2: n = 6; for Vd/F: n = 6, read-out: Vz/F
Description: Male Sprague-Dawley rats (180–220 g) were supplied by the Experimental Animal Center of Wenzhou Medical University. The animals were placed in a controlled environment of 20–26°C and 55 ± 15% relative humidity under a 12 h light-dark cycle. Except for the 12-h fasting period before the PK study, all rats were fed a standard rodent diet and freely consumed tap water. All experimental procedures and protocols were reviewed and approved by the Animal Care and Use Committee of the Wenzhou Medical University (No. wydw 2019-650), following the Guidelines for The Care and Use of Laboratory Animals. […] After the last administration of the three azoles or 0.5% CMC-Na (control group), a single dose of 8 mg/kg pyrotinib was administered orally to all rats in each group. Each group consisted of 6 rats. The azole antifungal medication was dissolved in 0.5% carboxymethylcellulose sodium solution (CMC-Na). […] The plasma was obtained by centrifuging the blood samples at 4000 rpm for 10 min at 4°C and stored at −80°C until analysis. The frozen plasma samples were thawed at room temperature and uniformly mixed; 50 μL of plasma sample was removed and mixed with 150 μL acetonitrile-midazolam solution (containing midazolam 200 ng/ml) to precipitate the proteins, followed by vortexing for 30 s and centrifuging at 13,000 rpm for 5 min. Then 150 μL of the supernatant was collected and placed into UPLC vials with 2 μL of sample was subjected to UPLC-MS/MS analysis. GraphPad Prism 7.0 software (GraphPad Software Inc.) was used to calculate the enzyme kinetic parameters of substrates which include Vmax, Km, IC50, Ki, and αKi values. The enzyme inhibition mode was obtained using the Linear Lineweaver-Burk plots. The PK characteristics, maximal plasma concentration (Cmax), time to peak plasma concentration (Tmax), apparent volume of distribution (Vz/F), area under the plasma concentration-time curve (AUC), elimination half-life (t1/2), plasma clearance (Cl/F), and mean residence time (MRT), were calculated using DAS (Drug and Statistics) software (Version 3.2.8, The People’s Hospital of Lishui, China). The one-way ANOVA and a Dunnet’s multiple range test were used for the statistical comparisons within groups with SPSS software (Version 25.0; SPSS Inc.). Statistical significance was set at p < 0.05.

[2] = Stability evaluation in rat plasma (UPLC-MS/MS method validation); format: in vitro ADME; settings: n = 6
Excerpt: The test method was extensively verified regarding precision, accuracy, and stability, according to the EMA (European Medicines Agency) 2011 and FDA (Food and Drug Administration) 2018 criteria. In six replicates, quality control (QC) samples were generated at low, medium, and high concentrations and were utilized to validate the procedure. This method was designed to conform to EMA and FDA regulatory requirements for bioanalytical methods.

[3] = set-up: method as in Ma et al., 2017; settings: following the initial dose of 80–400 mg pyrotinib; ref Ma et al., 2017; cited from earlier work
[4] = after 40 mg/kg fluconazole for 7 days
[5] = after 40 mg/kg itraconazole for 7 days
[6] = after 40 mg/kg ketoconazole for 7 days

`CCOc1cc2ncc(C#N)c(Nc3ccc(OCc4ccccn4)c(Cl)c3)c2cc1NC(=O)/C=C/[C@H]1CCCN1C` [pyrotinib, Pyrotinib] gave an AUC(0-inf) [1, 4] of 29200 ng·h/mL, an AUC(0-t) [1, 4] of 29100 ng·h/mL and a CL/F [1, 4] of 4.83 mL/min/kg. It also gave a Cmax [1, 4] of 4290 ng/mL, a Vd/F [1, 4] of 1.09 ± 0.21 L/kg and an AUC(0-inf) [1, 5] of 18000 ng·h/mL. The AUC(0-t) [1, 5] was 18000 ng·h/mL, the CL/F [1, 5] was 7.5 mL/min/kg and the Cmax [1, 5] was 3000 ng/mL. The Vd/F [1, 5] was 1 ± 0.58 L/kg, the AUC(0-inf) [1, 6] was 36500 ng·h/mL and the AUC(0-t) [1, 6] was 36300 ng·h/mL. For the same compound, the CL/F [1, 6] was 3.83 mL/min/kg, the Cmax [1, 6] was 4680 ng/mL and the Vd/F [1, 6] was 0.89 ± 0.24 L/kg. For the same compound, the AUC(0-inf) ([1]; control group (0.5% CMC-Na)) was 17800 ng·h/mL, the AUC(0-t) ([1]; control group (0.5% CMC-Na)) was 17800 ng·h/mL and the CL/F ([1]; control group (0.5% CMC-Na)) was 7.67 mL/min/kg. For the same compound, the Cmax ([1]; control group (0.5% CMC-Na)) was 3060 ng/mL, the Vd/F ([1]; control group (0.5% CMC-Na)) was 0.81 ± 0.25 L/kg and the “MRT(0-t)” value [1, 4] was 5.28 ± 0.24 H. For the same compound, the “MRT(0-∞)” value [1, 4] was 5.37 ± 0.27 H, the Tmax [1, 4] was 3.83 ± 0.41 H and the t1/2 [1, 4] was 2.66 ± 0.15 H. For the same compound, the “MRT(0-t)” value [1, 5] was 4.55 ± 0.36 H, the “MRT(0-∞)” value [1, 5] was 4.56 ± 0.37 H and the Tmax [1, 5] was 4.00 ± 1.10 H. For the same compound, the t1/2 [1, 5] was 1.47 ± 0.63 H, the “MRT(0-t)” value [1, 6] was 5.38 ± 0.38 H and the “MRT(0-∞)” value [1, 6] was 5.47 ± 0.38 H. For the same compound, the Tmax [1, 6] was 4.00 ± 1.10 H, the t1/2 [1, 6] was 2.66 ± 0.20 H and the “MRT(0-t)” value ([1]; control group (0.5% CMC-Na)) was 4.32 ± 0.40 H. For the same compound, the “MRT(0-∞)” value ([1]; control group (0.5% CMC-Na)) was 4.32 ± 0.42 H, the Tmax ([1]; control group (0.5% CMC-Na)) was 3.50 ± 1.23 H and the t1/2 ([1]; control group (0.5% CMC-Na)) was 1.26 ± 0.54 H. For the same compound, the “decrease of Cl/F compared to the control group” value ([1]; coadministrated with ketoconazole) was “approximately 50%”, the “decrease of Cl/F compared with control group” value ([1]; fluconazole group) was 0.37 fold and the “increase of AUC(0-t) compared with control group” value ([1]; fluconazole group) was 0.63 fold. The “increase of Cmax compared with control group” value ([1]; fluconazole group) was 0.40 fold, the “decrease of Cl/F compared with control group” value ([1]; ketoconazole group) was 0.50 fold and the “increase of AUC(0-t) compared with control group” value ([1]; ketoconazole group) was 1.04 fold. The “increase of Cmax compared with control group” value ([1]; ketoconazole group) was 0.53 fold, the “Stability in rat plasma, RE” value ([2]; 4°C, 24 h, high concentration (pyrotinib 4500, pyrotinib M1 0.75 μM)) was 101.04% and the “Stability in rat plasma, RE” value ([2]; 4°C, 24 h, low concentration (pyrotinib 15, pyrotinib M1 0.015 μM)) was 102.40%. The “Stability in rat plasma, RE” value ([2]; 4°C, 24 h, medium concentration (pyrotinib 150, pyrotinib M1 0.15 μM)) was 107.05%, the “Stability in rat plasma, RE” value ([2]; Room temperature, 6 h, high concentration (pyrotinib 4500, pyrotinib M1 0.75 μM)) was 103.56% and the “Stability in rat plasma, RE” value ([2]; Room temperature, 6 h, low concentration (pyrotinib 15, pyrotinib M1 0.015 μM)) was 105.41%. For the same compound, the “Stability in rat plasma, RE” value ([2]; Room temperature, 6 h, medium concentration (pyrotinib 150, pyrotinib M1 0.15 μM)) was 106.18%, the “Stability in rat plasma, RE” value ([2]; −80°C, 7 days, high concentration (pyrotinib 4500, pyrotinib M1 0.75 μM)) was 100.79% and the “Stability in rat plasma, RE” value ([2]; −80°C, 7 days, low concentration (pyrotinib 15, pyrotinib M1 0.015 μM)) was 98.95%. For the same compound, the “Stability in rat plasma, RE” value ([2]; −80°C, 7 days, medium concentration (pyrotinib 150, pyrotinib M1 0.15 μM)) was 108.01%, the “mean terminal half-life (t1/2)” value [3] was 11.4 to 15.9 h and the “time required to attain maximum plasma concentration (Tmax)” value [3] was 3 to 5 h.
